Earlier results, collected in patent publication US12491200B2, “Compositions and methods using cannabinoids for treating stammering/stuttering and symptoms of Tourette syndrome” (priority 2019, dated 2025).

Assays:
[1] = test system: developmental stuttering
[2] = test system: tic disorders; details: for tic symptom score: compared with placebo; for most common adverse events: tic disorders
[3] = test system: Tourette syndrome; details: patients aged between 16 and 19; very high doses

In the case of `N[C@@H](Cc1ccc(O)c(O)c1)C(=O)O` [levodopa], the speech fluency [1] is listed as “worsening speech fluency”.

For `Cc1nc2n(c(=O)c1CCN1CCC(c3noc4cc(F)ccc34)CC1)CCCC2` [risperidone], the speech fluency [1] is listed as “improve speech fluency”, the tic symptom score [2] is listed as “significantly improve tic symptom score” and the “most common adverse events” value [2] is listed as “drowsiness and appetite”.

In the case of `O=C1Cc2cc(CCN3CCN(c4nsc5ccccc45)CC3)c(Cl)cc2N1` [ziprasidone], the tic symptom score [2] is listed as “significantly improve tic symptom score”.

In the case of `O=C1CCc2ccc(OCCCCN3CCN(c4cccc(Cl)c4Cl)CC3)cc2N1` [aripiprazole], the tic symptom score [2] is listed as “significantly improve tic symptom score” and the “most common adverse events” value [2] is listed as “dizziness, nausea, and dry mouth”.

For `CCCCCc1cc(O)c2c(c1)OC(C)(C)[C@@H]1CCC(C)=C[C@@H]21` [synthetic THC, delta-9-tetrahydrocannabinol], the “symptoms such as vocal blocking tics and comorbid conditions” value [3] is listed as “significant improvement”.

In the case of `OCCOCCN1CCN(C2=Nc3ccccc3Sc3ccccc32)CC1` [quetiapine], the tic symptom score [2] is listed as “significantly improve tic symptom score”.

For `O=C(CCCN1CCC(O)(c2ccc(Cl)cc2)CC1)c1ccc(F)cc1` [haloperidol], the speech fluency [1] is listed as “improve speech fluency”, the tic symptom score [2] is listed as “significantly improve tic symptom score” and the “most common adverse events” value [2] is listed as “drowsiness, extrapyramidal reactions, and dry mouth”.

For `CCN(CC)CCNC(=O)c1cc(S(C)(=O)=O)ccc1OC` [tiapride], the “most common adverse events” value [2] is listed as “dizziness, nausea, and dry mouth”.
